Experimental findings from ChEMBL document CHEMBL5209565, “pH biosensor based assay for SLC16A3 using HEK-293 SLC16A3 OE cells” (2022) are described below.

Structures are written as SMILES.

For the assay, the target named is T1, Monocarboxylate transporter 4 (Homo sapiens) (UniProt O15427).
T1 sequence (whole entry): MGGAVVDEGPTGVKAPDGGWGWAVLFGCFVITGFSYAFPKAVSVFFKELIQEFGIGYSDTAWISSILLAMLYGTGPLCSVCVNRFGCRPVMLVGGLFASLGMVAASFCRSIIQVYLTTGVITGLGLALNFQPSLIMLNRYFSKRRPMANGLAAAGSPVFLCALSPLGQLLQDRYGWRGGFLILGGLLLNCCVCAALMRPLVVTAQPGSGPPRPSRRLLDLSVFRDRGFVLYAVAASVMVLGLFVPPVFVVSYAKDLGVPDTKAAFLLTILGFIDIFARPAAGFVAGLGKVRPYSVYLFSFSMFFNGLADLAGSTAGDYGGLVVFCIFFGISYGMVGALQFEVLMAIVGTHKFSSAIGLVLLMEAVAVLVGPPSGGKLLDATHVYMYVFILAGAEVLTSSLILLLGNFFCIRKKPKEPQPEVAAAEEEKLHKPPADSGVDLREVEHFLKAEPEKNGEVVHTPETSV
Kind of assay: Substrate uptake by the monocarboxylate transporter 4 (MCT4, SLC16A3) as assessed by a sensor pH-sensitive genetically encoded fluorescent sensor (pHAxensor) in HEK-293 JumpIN-SLC16A3 cells (PubChem AID: 1794833). The following applies: HEK293. The class given is functional, cell-based.

`CC(O)C(=O)O` (stereo unspecified): the proof of principle result is “Substrate. In Comparison To Wild-Type And Not Induced Cells, Cells With Induced Slc16A3 Expression Showed A Specific Transporter Activity, Upon Substrate Addition, Detected As Decrease Of Intracellular Ph, Recorded As Quenching Of The Sensor Fluorescence Signal”.
